Results taken from publication PMC8564633, “SMAC/Diablo controls proliferation of cancer cells by regulating phosphatidylethanolamine synthesis” (Molecular Oncology, 2021).
Non-standard residues stand in square brackets, D forms with d. Residues, ends and D or L forms follow the SMILES beside them. Dmt = Cc1cc(O)cc(C)c1C[C@H](N)C(=O)O; Orn = NCCC[C@H](N)C(=O)O

tested on: A549 cells; format: cell-based, human; details: 24 h
Description: Cells were seeded in 96‐well cell culture plates (8000/well) and allowed to grow for 48 h. After washing with PBS, cells were fixed with 50% trichloroacetic acid and stained with SRB for 20 min. Excess SRB was removed, and cells were washed with 1% acetic acid. SRB extraction was done using 100 mM Tris‐base, and absorbance at 510 nm was determined using an Infinite M1000 plate reader (Tecan, Männedorf, Switzerland).
Fig. 7 PSD‐interacting peptides bind to PSD, inhibiting its activity, and when cell‐penetrating and mitochondria‐ or nucleus‐targeted, inhibit cell proliferation. […] (B) Inhibition of PSD activity by the 2F3 (●) or 1C11 (○) peptide. PSD activity was measured using the DSB‐3 method. (C‐E) Cell proliferation inhibition following incubation of A549 cells with the indicated mitochondria‐ or nucleus‐targeted peptides for 24 h in a serum‐free medium, and cell proliferation was assayed using the SRB method. Results are the means ± SEM (n = 3). (F) A549 cells were incubated for 90 min with 5 µM of the mitochondria‐ or nucleus‐targeted FITC‐labelled peptides, immunostained with anti‐SMAC antibodies and with DAPI and visualized by confocal microscope for subcellular localization. (a) and (b) present higher magnification, white arrows point to possible nuclear localization of the peptide, and blue arrows to its colocalization with mitochondria marker (n = 3). Scale bars represent 20, 10 µm as indicated.
Table S4. Effects of peptide identified as interacting with PSD or their interaction with SMAC/Diablo is prevented in the presence of PSD on A549 lung cancer cell growth A549 cells were seeded in 96-well plate (7000 cells/well). After 24 h cells were incubated without or with the indicated peptide concentration for 24 h in a serum-free medium. Then, cells were washed with PBS, and analyzed for cell growth using the SRB method. Results are the mean ± SD (n=3). Peptide sequence, its identification manner, based on interacting with PSD or their interaction with SMAC/Diablo is prevented in the presence of PSD are shown. In addition, the peptides are presented with the cell penetrating peptide targeting to the mitochondria or the nucleus. The results are presented as the concentration required for 50% inhibition (IC50).
No Peptide spot and Protein/Function Peptide and Cellular IC50 […]
ALSTSSPIPSVPQSQ transcriptional coactivator 2 Mitochondria (A) […]
AQPQTGSGAS truncated poly Q, transcriptional H-(D-Arg)–Dmt–Orn–Phe- 2F3 >100 Interacting with PSD coactivator for NOTCH proteins, Mitochondria promotes proliferative signaling R-{D-Arg}-RK- 2F3 28.9±5.2 during neurogenesis (Nucleus). Nucleus […]
PNQSSRAFQGTDHS transcriptional coactivator 2 Mitochondria
SDLAFDFLSQQ truncated poly Q, A transcriptional D-Arg–Dmt–Orn–Phe-2I8 66.8±4.7 Identified by PSD coactivator for NOTCH proteins, Mitochondria preventing SMAC promotes proliferative signaling R-{D-Arg}-RK-2I8 >100 interaction with it during neurogenesis (Nucleus). Nucleus […]
ALLTSGTSDPRARV protease promotes cell death either Mitochondria […]
TYGTPSLWARL by direct binding to IAPs proteins D-Arg–Dmt–Orn–Phe -1C11 89.3±5.49 Interacting with PSD leading to increased caspase Mitochondria activity or caspase-independent and serine protease activity-dependent R-{D-Arg}-RK- 1C11 66.5±3.9 mechanism. (Mitochondrion Nucleus intermembrane space). 1C11- R-{D-Arg}-RK 30.0±3.8 […]
ELYRMSTYSTFPAG Acts as an E3 ubiquitin-protein Mitochondria
VPVSERSLARA ligase, regulator of NF-kappa-B 1E14- D-Arg–Dmt–Orn–Phe >100 Identified by PSD signaling, apoptosis, cell Mitochondria preventing SMAC proliferation, cell invasion and R-{D-Arg}-RK-1E14 >100 interaction with it metastasis, modulates inflammatory Nucleus signaling, (Cytosol, nucleus and […]

SMILES	IC50
CSCC[C@H](NC(=O)[C@H](CCCNC(=N)N)NC(=O)[C@H](Cc1ccc(O)cc1)NC(=O)[C@H](CC(C)C)NC(=O)[C@H](CCC(=O)O)NC(=O)[C@H](CCCCN)NC(=O)[C@H](CCCNC(=N)N)NC(=O)[C@@H](CCCNC(=N)N)NC(=O)[C@@H](N)CCCNC(=N)N)C(=O)N[C@@H](CO)C(=O)N[C@H](C(=O)N[C@@H](Cc1ccc(O)cc1)C(=O)N[C@@H](CO)C(=O)N[C@H](C(=O)N[C@@H](Cc1ccccc1)C(=O)N1CCC[C@H]1C(=O)N[C@@H](C)C(=O)NCC(=O)N[C@H](C(=O)N1CCC[C@H]1C(=O)N[C@H](C(=O)N[C@@H](CO)C(=O)N[C@@H](CCC(=O)O)C(=O)N[C@@H](CCCNC(=N)N)C(=O)N[C@@H](CO)C(=O)N[C@@H](CC(C)C)C(=O)N[C@@H](C)C(=O)N[C@@H](CCCNC(=N)N)C(=O)N[C@@H](C)C(=O)O)C(C)C)C(C)C)[C@@H](C)O)[C@@H](C)O [R-{D-Arg}-RK-1E14] (H-R[dR]RKELYRMSTYSTFPAGVPVSERSLARA-OH; N-terminus and C-terminus assumed)	> 100 µM
CC(C)C[C@H](NC(=O)[C@H](CC(=O)O)NC(=O)[C@H](CO)NC(=O)[C@H](CO)NC(=O)[C@H](Cc1c[nH]cn1)NC(=O)[C@H](CC(=O)O)NC(=O)[C@@H](NC(=O)CNC(=O)[C@H](CCC(N)=O)NC(=O)[C@H](Cc1ccccc1)NC(=O)[C@H](C)NC(=O)[C@H](CCCNC(=N)N)NC(=O)[C@H](CO)NC(=O)[C@H](CO)NC(=O)[C@H](CCC(N)=O)NC(=O)[C@H](CC(N)=O)NC(=O)[C@@H]1CCCN1C(=O)[C@H](CCCCN)NC(=O)[C@H](CCCNC(=N)N)NC(=O)[C@@H](CCCNC(=N)N)NC(=O)[C@@H](N)CCCNC(=N)N)[C@@H](C)O)C(=O)N[C@@H](C)C(=O)N[C@@H](Cc1ccccc1)C(=O)N[C@@H](CC(=O)O)C(=O)N[C@@H](Cc1ccccc1)C(=O)N[C@@H](CC(C)C)C(=O)N[C@@H](CO)C(=O)N[C@@H](CCC(N)=O)C(=O)N[C@@H](CCC(N)=O)C(=O)O [R-{D-Arg}-RK-2I8] (H-R[dR]RKPNQSSRAFQGTDHSSDLAFDFLSQQ-OH; N-terminus and C-terminus assumed)	> 100 µM
CC(C)C[C@H](NC(=O)[C@H](CCCNC(=N)N)NC(=O)[C@H](C)NC(=O)[C@H](Cc1c[nH]c2ccccc12)NC(=O)[C@H](CC(C)C)NC(=O)[C@H](CO)NC(=O)[C@@H]1CCCN1C(=O)[C@@H](NC(=O)CNC(=O)[C@H](Cc1ccc(O)cc1)NC(=O)[C@@H](NC(=O)[C@@H](NC(=O)[C@H](CCCNC(=N)N)NC(=O)[C@H](C)NC(=O)[C@H](CCCNC(=N)N)NC(=O)[C@@H]1CCCN1C(=O)[C@H](CC(=O)O)NC(=O)[C@H](CO)NC(=O)[C@@H](NC(=O)CNC(=O)[C@H](CO)NC(=O)[C@@H](NC(=O)[C@H](CC(C)C)NC(=O)[C@H](CC(C)C)NC(=O)[C@H](C)NC(=O)[C@H](CCCCN)NC(=O)[C@H](CCCNC(=N)N)NC(=O)[C@@H](CCCNC(=N)N)NC(=O)[C@@H](N)CCCNC(=N)N)[C@@H](C)O)[C@@H](C)O)C(C)C)[C@@H](C)O)[C@@H](C)O)C(=O)O [R-{D-Arg}-RK- 1C11] (H-R[dR]RKALLTSGTSDPRARVTYGTPSLWARL-OH; N-terminus and C-terminus assumed)	66.5 ± 3.9 µM

Continued, values first:

IC50	SMILES
> 100 µM	CSCC[C@H](NC(=O)[C@H](CCCNC(=N)N)NC(=O)[C@H](Cc1ccc(O)cc1)NC(=O)[C@H](CC(C)C)NC(=O)[C@H](CCC(=O)O)NC(=O)[C@H](Cc1ccccc1)NC(=O)[C@H](CCCN)NC(=O)[C@H](Cc1c(C)cc(O)cc1C)NC(=O)[C@H](N)CCCNC(=N)N)C(=O)N[C@@H](CO)C(=O)N[C@H](C(=O)N[C@@H](Cc1ccc(O)cc1)C(=O)N[C@@H](CO)C(=O)N[C@H](C(=O)N[C@@H](Cc1ccccc1)C(=O)N1CCC[C@H]1C(=O)N[C@@H](C)C(=O)NCC(=O)N[C@H](C(=O)N1CCC[C@H]1C(=O)N[C@H](C(=O)N[C@@H](CO)C(=O)N[C@@H](CCC(=O)O)C(=O)N[C@@H](CCCNC(=N)N)C(=O)N[C@@H](CO)C(=O)N[C@@H](CC(C)C)C(=O)N[C@@H](C)C(=O)N[C@@H](CCCNC(=N)N)C(=O)N[C@@H](C)C(=O)O)C(C)C)C(C)C)[C@@H](C)O)[C@@H](C)O [D-Arg–Dmt–Orn–Phe-1E14] (H-[dR][Dmt][Orn]FELYRMSTYSTFPAGVPVSERSLARA-OH; N-terminus and C-terminus assumed)
> 100 µM	CC[C@H](C)[C@H](NC(=O)[C@@H]1CCCN1C(=O)[C@H](CO)NC(=O)[C@H](CO)NC(=O)[C@@H](NC(=O)[C@H](CO)NC(=O)[C@H](CC(C)C)NC(=O)[C@H](C)NC(=O)[C@H](Cc1ccccc1)NC(=O)[C@H](CCCN)NC(=O)[C@H](Cc1c(C)cc(O)cc1C)NC(=O)[C@H](N)CCCNC(=N)N)[C@@H](C)O)C(=O)N1CCC[C@H]1C(=O)N[C@@H](CO)C(=O)N[C@H](C(=O)N1CCC[C@H]1C(=O)N[C@@H](CCC(N)=O)C(=O)N[C@@H](CO)C(=O)N[C@@H](CCC(N)=O)C(=O)N[C@@H](C)C(=O)N[C@@H](CCC(N)=O)C(=O)N1CCC[C@H]1C(=O)N[C@@H](CCC(N)=O)C(=O)N[C@H](C(=O)NCC(=O)N[C@@H](CO)C(=O)NCC(=O)N[C@@H](C)C(=O)N[C@@H](CO)C(=O)O)[C@@H](C)O)C(C)C [H-(D-Arg)–Dmt–Orn–Phe- 2F3] (H-[dR][Dmt][Orn]FALSTSSPIPSVPQSQAQPQTGSGAS-OH; C-terminus assumed)
28.9 ± 5.2 µM	CC[C@H](C)[C@H](NC(=O)[C@@H]1CCCN1C(=O)[C@H](CO)NC(=O)[C@H](CO)NC(=O)[C@@H](NC(=O)[C@H](CO)NC(=O)[C@H](CC(C)C)NC(=O)[C@H](C)NC(=O)[C@H](CCCCN)NC(=O)[C@H](CCCNC(=N)N)NC(=O)[C@@H](CCCNC(=N)N)NC(=O)[C@@H](N)CCCNC(=N)N)[C@@H](C)O)C(=O)N1CCC[C@H]1C(=O)N[C@@H](CO)C(=O)N[C@H](C(=O)N1CCC[C@H]1C(=O)N[C@@H](CCC(N)=O)C(=O)N[C@@H](CO)C(=O)N[C@@H](CCC(N)=O)C(=O)N[C@@H](C)C(=O)N[C@@H](CCC(N)=O)C(=O)N1CCC[C@H]1C(=O)N[C@@H](CCC(N)=O)C(=O)N[C@H](C(=O)NCC(=O)N[C@@H](CO)C(=O)NCC(=O)N[C@@H](C)C(=O)N[C@@H](CO)C(=O)O)[C@@H](C)O)C(C)C [R-{D-Arg}-RK- 2F3] (H-R[dR]RKALSTSSPIPSVPQSQAQPQTGSGAS-OH; N-terminus and C-terminus assumed)

same assay, conditions: A549 cells, 24 h, serum‐free medium, SRB; read-out: IC50, cell proliferation inhibition

IC50	SMILES
19.6 µM	CC[C@H](C)[C@H](NC(=O)[C@@H]1CCCN1C(=O)[C@H](CO)NC(=O)[C@H](CO)NC(=O)[C@@H](NC(=O)[C@H](CO)NC(=O)[C@H](CC(C)C)NC(=O)[C@H](C)NC(=O)[C@H](CCCCN)NC(=O)[C@H](CCCNC(=N)N)NC(=O)[C@@H](CCCNC(=N)N)NC(=O)[C@@H](N)CCCNC(=N)N)[C@@H](C)O)C(=O)N1CCC[C@H]1C(=O)N[C@@H](CO)C(=O)N[C@H](C(=O)N1CCC[C@H]1C(=O)N[C@@H](CCC(N)=O)C(=O)N[C@@H](CO)C(=O)N[C@@H](CCC(N)=O)C(=O)N[C@@H](C)C(=O)N[C@@H](CCC(N)=O)C(=O)N1CCC[C@H]1C(=O)N[C@@H](CCC(N)=O)C(=O)N[C@H](C(=O)NCC(=O)N[C@@H](CO)C(=O)NCC(=O)N[C@@H](C)C(=O)N[C@@H](CO)C(=O)O)[C@@H](C)O)C(C)C [R-{D-Arg}-RK- 2F3] (H-R[dR]RKALSTSSPIPSVPQSQAQPQTGSGAS-OH; N-terminus and C-terminus assumed)
